Experiment [1] concerns the target Uracil-DNA glycosylase (Homo sapiens) (UniProt P13051). The note with it: Compound Concentration 10.0 uM, Hit No.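 Note: UNG excision on a quenched double-stranded DNA oligo probe, with APE1 added for strand incision and turnover, read as fluorescence at 594 nm as strands separate.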
Description: Inhibition of UNG by quantifying inhibition of UNG-mediated cleavage and dissociation of quenched duplex DNA oligonucleotides, measured as fluorescence at 594 nm. To generate a functional strand incision and increase turn-over this assay is coupled to APE1.
In experiment [2] the target is N-glycosylase/DNA lyase (Homo sapiens) (UniProt O15527). The following applies: Compound Concentration 10.0 uM.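 Note: OGG1 cleavage of a quenched duplex DNA oligonucleotide, coupled to APE1 for strand incision, read as fluorescence at 594 nm.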
N-glycosylase/DNA lyase (Homo sapiens), sequence (O15527 whole entry): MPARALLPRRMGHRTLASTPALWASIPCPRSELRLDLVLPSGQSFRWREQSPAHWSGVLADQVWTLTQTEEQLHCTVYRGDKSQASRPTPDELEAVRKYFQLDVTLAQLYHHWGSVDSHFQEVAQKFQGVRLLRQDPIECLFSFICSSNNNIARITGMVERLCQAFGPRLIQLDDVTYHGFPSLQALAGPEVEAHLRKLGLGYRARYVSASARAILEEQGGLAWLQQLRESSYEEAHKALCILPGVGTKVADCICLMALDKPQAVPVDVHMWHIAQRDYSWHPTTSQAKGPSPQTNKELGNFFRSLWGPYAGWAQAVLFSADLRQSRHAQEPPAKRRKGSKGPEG
Description: Inhibition of OGG1 by quantifying inhibition of OGG1-mediated cleavage and dissociation of quenched duplex DNA oligonucleotides, measured as fluorescence at 594 nm. To generate a functional strand incision and increase turn-over this assay is coupled to APE1.
Experiment [3] addresses DNA-3-methyladenine glycosylase (Homo sapiens) (UniProt P29372). The following applies: Compound Concentration 10.0 uM, Hit No.
Description: Inhibition of MPG by quantifying inhibition of MPG-mediated cleavage and dissociation of quenched duplex DNA oligonucleotides, measured as fluorescence at 594 nm. To generate a functional strand incision and increase turn-over this assay is coupled to APE1.
Experiment [4] has as its target T1, Single-strand selective monofunctional uracil DNA glycosylase (Homo sapiens) (UniProt Q53HV7).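 Note: enzymatic SMUG1 assay coupled with APE1, reading fluorescence at 594 nm released when a quenched double-stranded DNA oligonucleotide substrate is cleaved and separated.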
T1 sequence (whole entry): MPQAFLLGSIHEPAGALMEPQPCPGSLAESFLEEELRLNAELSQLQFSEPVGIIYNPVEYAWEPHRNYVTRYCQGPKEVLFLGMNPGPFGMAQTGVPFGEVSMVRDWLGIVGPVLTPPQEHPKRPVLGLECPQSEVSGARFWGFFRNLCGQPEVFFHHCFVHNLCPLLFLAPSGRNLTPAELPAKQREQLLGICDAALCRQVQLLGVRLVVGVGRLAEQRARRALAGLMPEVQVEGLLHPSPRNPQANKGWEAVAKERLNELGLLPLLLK
The following applies: Compound Concentration 10.0 uM, Hit No.
Description: Inhibition of SMUG1 by quantifying inhibition of SMUG1-mediated cleavage and dissociation of quenched duplex DNA oligonucleotides, measured as fluorescence at 594 nm. To generate a functional strand incision and increase turn-over this assay is coupled to APE1.

Experiment [5] deals with T2, Adenine DNA glycosylase (Homo sapiens) (UniProt Q9UIF7).
T2 sequence (whole entry): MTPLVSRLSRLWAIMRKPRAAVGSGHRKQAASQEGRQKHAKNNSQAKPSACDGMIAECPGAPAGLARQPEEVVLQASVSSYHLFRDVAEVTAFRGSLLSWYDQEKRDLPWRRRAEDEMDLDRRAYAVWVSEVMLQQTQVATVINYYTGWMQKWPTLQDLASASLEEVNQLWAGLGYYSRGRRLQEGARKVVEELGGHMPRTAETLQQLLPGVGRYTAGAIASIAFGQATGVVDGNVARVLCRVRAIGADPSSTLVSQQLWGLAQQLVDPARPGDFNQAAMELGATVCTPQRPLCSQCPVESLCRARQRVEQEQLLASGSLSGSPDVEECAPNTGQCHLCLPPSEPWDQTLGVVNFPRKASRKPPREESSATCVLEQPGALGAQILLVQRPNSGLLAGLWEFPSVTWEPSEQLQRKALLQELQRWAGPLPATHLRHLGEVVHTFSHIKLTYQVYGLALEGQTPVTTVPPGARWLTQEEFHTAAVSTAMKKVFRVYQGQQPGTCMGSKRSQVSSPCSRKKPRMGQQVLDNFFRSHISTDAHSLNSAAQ
The following applies: Compound Concentration 10.0 uM, Hit No.
Description: Inhibition of MUTYH by quantifying inhibition of MUTYH-mediated cleavage and dissociation of quenched duplex DNA oligonucleotides, measured as fluorescence at 594 nm. To generate a functional strand incision and increase turn-over this assay is coupled to APE1.

In experiment [6] the target is Endonuclease 8-like 1 (Homo sapiens) (UniProt Q96FI4). The following applies: Compound Concentration 10.0 uM, Hit No.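 Note: fluorescence at 594 nm from quenched duplex DNA oligonucleotides released by NEIL1 cleavage and strand separation, reported as reduction of this enzyme activity.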
Endonuclease 8-like 1 (Homo sapiens), sequence (Q96FI4 whole entry, the tested form may be a part): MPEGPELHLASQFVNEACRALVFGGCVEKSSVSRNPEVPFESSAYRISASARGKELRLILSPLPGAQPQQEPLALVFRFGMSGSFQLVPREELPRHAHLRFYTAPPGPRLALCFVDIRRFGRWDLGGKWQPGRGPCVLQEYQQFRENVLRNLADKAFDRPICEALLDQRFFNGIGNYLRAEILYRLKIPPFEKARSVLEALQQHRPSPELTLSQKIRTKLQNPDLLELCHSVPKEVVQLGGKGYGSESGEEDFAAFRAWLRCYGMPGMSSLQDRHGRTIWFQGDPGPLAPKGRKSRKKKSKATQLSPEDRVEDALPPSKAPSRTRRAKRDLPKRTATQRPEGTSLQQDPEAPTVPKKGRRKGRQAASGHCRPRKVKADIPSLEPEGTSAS
Description: Inhibition of NEIL1 by quantifying inhibition of NEIL1-mediated cleavage and dissociation of quenched duplex DNA oligonucleotides, measured as fluorescence at 594 nm.
In experiment [7] the target is Methyl-CpG-binding domain protein 4 (Homo sapiens) (UniProt O95243). The following applies: Compound Concentration 10.0 uM, Hit No.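 Note: MBD4 activity read as fluorescence at 594 nm from cleavage and release of a quenched duplex DNA oligonucleotide, with APE1 coupled to incise the strand and raise turnover.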
Methyl-CpG-binding domain protein 4 (Homo sapiens), sequence (O95243 whole entry, the tested form may be a part): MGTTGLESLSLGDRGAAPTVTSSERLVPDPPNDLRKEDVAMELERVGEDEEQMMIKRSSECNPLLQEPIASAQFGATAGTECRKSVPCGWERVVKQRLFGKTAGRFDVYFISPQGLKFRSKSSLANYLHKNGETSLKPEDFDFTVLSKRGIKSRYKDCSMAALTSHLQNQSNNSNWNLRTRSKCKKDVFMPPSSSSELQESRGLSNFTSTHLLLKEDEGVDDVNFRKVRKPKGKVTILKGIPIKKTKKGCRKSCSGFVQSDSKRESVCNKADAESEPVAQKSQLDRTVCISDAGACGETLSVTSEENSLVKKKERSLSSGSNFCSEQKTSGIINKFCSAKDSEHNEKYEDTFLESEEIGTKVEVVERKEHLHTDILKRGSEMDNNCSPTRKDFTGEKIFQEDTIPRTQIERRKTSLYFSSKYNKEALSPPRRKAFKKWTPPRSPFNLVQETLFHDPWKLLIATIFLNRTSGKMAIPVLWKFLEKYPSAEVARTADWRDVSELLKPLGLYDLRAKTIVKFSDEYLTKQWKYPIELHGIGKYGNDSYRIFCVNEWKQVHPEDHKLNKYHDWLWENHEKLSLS
Description: Inhibition of MBD4 by quantifying inhibition of MBD4-mediated cleavage and dissociation of quenched duplex DNA oligonucleotides, measured as fluorescence at 594 nm. To generate a functional strand incision and increase turn-over this assay is coupled to APE1.
The target in experiment [8] is G/T mismatch-specific thymine DNA glycosylase (Homo sapiens) (UniProt Q13569). The note with it: Compound Concentration 10.0 uM, Hit No.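 Note: human TDG cleavage of quenched duplex DNA oligonucleotides coupled to APE1, strand release read as fluorescence at 594 nm, inhibition of TDG activity.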
G/T mismatch-specific thymine DNA glycosylase (Homo sapiens), sequence (Q13569 whole entry): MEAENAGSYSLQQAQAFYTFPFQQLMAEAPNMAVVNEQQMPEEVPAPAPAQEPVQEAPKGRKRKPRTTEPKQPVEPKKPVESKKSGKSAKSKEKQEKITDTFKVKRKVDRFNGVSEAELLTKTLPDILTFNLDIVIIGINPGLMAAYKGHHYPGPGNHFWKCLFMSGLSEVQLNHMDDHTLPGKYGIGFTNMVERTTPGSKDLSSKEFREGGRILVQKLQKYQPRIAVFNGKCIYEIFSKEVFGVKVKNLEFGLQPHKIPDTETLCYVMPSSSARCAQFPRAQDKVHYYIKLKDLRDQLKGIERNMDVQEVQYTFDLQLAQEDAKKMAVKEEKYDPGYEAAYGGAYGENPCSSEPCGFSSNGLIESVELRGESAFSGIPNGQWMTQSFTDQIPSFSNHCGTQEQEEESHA
Description: Inhibition of TDG by quantifying inhibition of TDG-mediated cleavage and dissociation of quenched duplex DNA oligonucleotides, measured as fluorescence at 594 nm. To generate a functional strand incision and increase turn-over this assay is coupled to APE1.
Experiment [9] addresses T3, Endonuclease 8-like 2 (Homo sapiens) (UniProt Q969S2).
T3 sequence (whole entry): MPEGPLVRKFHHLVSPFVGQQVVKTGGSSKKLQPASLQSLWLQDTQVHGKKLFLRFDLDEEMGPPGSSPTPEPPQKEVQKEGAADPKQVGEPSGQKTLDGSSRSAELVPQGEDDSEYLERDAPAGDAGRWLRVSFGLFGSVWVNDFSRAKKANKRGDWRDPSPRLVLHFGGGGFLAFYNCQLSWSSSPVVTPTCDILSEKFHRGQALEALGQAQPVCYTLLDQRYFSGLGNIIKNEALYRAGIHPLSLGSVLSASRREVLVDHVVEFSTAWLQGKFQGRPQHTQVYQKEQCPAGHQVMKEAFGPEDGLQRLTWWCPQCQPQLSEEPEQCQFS
The following applies: Compound Concentration 10.0 uM.
Description: Inhibition of NEIL2 by quantifying inhibition of NEIL2-mediated cleavage and dissociation of quenched duplex DNA oligonucleotides, measured as fluorescence at 594 nm.

In experiment [10] the target is T4, Endonuclease III-like protein 1 (Homo sapiens) (UniProt P78549).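 Note: enzyme assay tracking NTHL1 cutting and release of a quenched double-stranded DNA oligo substrate, read as fluorescence at 594 nm.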
T4 sequence (whole entry): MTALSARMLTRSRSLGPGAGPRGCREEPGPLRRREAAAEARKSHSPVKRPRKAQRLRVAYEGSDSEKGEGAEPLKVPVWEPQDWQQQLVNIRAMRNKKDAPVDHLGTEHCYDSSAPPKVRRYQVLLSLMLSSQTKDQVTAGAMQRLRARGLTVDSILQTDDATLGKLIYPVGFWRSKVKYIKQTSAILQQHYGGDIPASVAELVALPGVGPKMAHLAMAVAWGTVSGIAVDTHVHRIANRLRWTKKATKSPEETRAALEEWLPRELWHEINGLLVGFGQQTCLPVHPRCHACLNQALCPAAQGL
The note with it: Compound Concentration 10.0 uM, Hit No.
Description: Inhibition of NTHL1 by quantifying inhibition of NTHL1-mediated cleavage and dissociation of quenched duplex DNA oligonucleotides, measured as fluorescence at 594 nm.

SMILES strings stand for the structures.

DNA-3-methyladenine glycosylase (Homo sapiens), sequence (P29372 whole entry): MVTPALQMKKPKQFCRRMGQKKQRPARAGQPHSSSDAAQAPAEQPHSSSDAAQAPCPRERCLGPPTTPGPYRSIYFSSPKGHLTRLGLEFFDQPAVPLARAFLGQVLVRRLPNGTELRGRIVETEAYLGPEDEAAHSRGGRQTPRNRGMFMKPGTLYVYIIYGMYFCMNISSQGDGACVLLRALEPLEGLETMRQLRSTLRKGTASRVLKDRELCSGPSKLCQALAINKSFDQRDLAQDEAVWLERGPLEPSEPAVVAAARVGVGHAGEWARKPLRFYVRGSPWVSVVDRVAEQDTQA
Uracil-DNA glycosylase (Homo sapiens), sequence (P13051 whole entry): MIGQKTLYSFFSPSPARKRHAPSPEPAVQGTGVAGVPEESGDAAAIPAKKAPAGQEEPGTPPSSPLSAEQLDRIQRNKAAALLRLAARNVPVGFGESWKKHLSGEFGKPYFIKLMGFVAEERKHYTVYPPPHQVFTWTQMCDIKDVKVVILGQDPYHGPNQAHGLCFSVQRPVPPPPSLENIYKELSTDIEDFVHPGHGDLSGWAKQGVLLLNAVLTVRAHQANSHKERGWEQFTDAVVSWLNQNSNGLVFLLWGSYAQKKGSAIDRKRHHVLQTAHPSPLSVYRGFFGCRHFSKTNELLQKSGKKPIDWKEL

For the compound `COc1cc(OC)c(NC(=O)Nc2cc(C)on2)cc1Cl`, the inhibition is -3.91% in experiment [1]; -6.94% in experiment [2] (Hit No); -9.71% in experiment [3]; -8.83% in experiment [4]; -8.2% in experiment [5]; -2.66% in experiment [6]. The inhibition in experiment [7] was -2.96%; in [8] it was -8.88%; in experiment [9] (Hit No) it was 3.98%; in experiment [10], 17.9%.
Consider `CCc1nnc(NS(=O)(=O)c2ccc(NC(=S)NC(=O)/C=C/c3ccc(F)cc3)cc2)s1`, for which the inhibition was 3.3% in [1]; 12.1% in [2] (Hit No); 31.8% in experiment [3]; 24.8% in experiment [4]; 54.8% in experiment [5]; -4.5% in [6]. Also, the inhibition in experiment [7] turned out to be 48%; in experiment [8] it was 49.8%; in experiment [9] (Hit No), 9.5%; in [10], 23.2%.
With `c1ccc2nc(N3CCNCC3)ccc2c1`, the inhibition in experiment [1] is 1.1%; in experiment [2] (Hit No) it was -7.23%; in [3], -3.87%; in [4], 2.02%; in experiment [5], 11.1%; in [6], 8.31%. Moreover, the inhibition in experiment [7] was -0.572%; in experiment [8], 12.3%; in experiment [9] (Hit No), 7.8%; in experiment [10], 13.8%.
For `COc1cc(Nc2ccc([N+](=O)[O-])cc2C(=O)O)cc2ccccc12`, the inhibition turned out to be 10.9% in [1]; 33.4% in experiment [2] (Hit No); 44% in [3]; 23.2% in [4]; 91.9% in experiment [5]; 3.71% in [6]. Moreover, the inhibition was found to be 71% in experiment [7], 67.3% in [8], 5.25% in experiment [9] (Hit No) and 11.3% in [10].
`COc1ccc(/C=C/CCCCOc2ccc(C(=O)c3cccc(C(=O)O)c3)cc2CCC(=O)O)cc1`: the inhibition in [1] is -7.57%; in [2] (Hit Yes), 42.4%; in experiment [3], 15.9%; in [4], 12.1%; in experiment [5] it was 28.6%; in experiment [6] it was -0.204%. For the same compound, the inhibition in [7] came to 49.9%; in experiment [8], 43.2%; in experiment [9] (Hit No), 15.7%; in experiment [10], 2.66%.
Take `Cc1c(C2=CCN(C(=O)N(C)C(C)C)CC2)nnn1-c1cccnc1F`: the inhibition in [1] was -8.86%; in experiment [2] (Hit No), -1.95%; in [3], -1.32%; in experiment [4], 11.5%; in [5] it was 17%; in experiment [6], -0.649%. Besides, the inhibition was 0.847% in experiment [7], 17.2% in experiment [8], 9% in experiment [9] (Hit No) and -9.8% in [10].
Take `CS(=O)(=O)c1cccc(NC(=O)N(Cc2ccc(C(=O)Nc3nnn[nH]3)cc2)c2ccc(C3CCCCC3)cc2)c1`: the inhibition in experiment [1] is -4.34%; in experiment [2] (Hit No), 18.7%; in experiment [3], 26.7%; in [4], 6.31%; in experiment [5], 44.3%; in experiment [6], 1.57%. For the same compound, the inhibition in experiment [7] stood at 45.7%; in experiment [8] it was 36.1%; in experiment [9] (Hit No) it was 14.7%; in experiment [10], 7.79%.
`O=C(O)c1ccccc1S(=O)(=O)NCCCCN1C(=O)c2cccc3cccc(c23)C1=O`: the inhibition in [1] was -8.5%; in experiment [2] (Hit No), 2.55%; in [3], 3.23%; in experiment [4] it was 12.5%; in experiment [5] it was 23.6%; in [6] it was 8.25%. For the same compound, the inhibition in [7] is 12%; in [8], 16.1%; in experiment [9] (Hit No), 8%; in experiment [10] it was -8.34%.
In the case of `COC(=O)c1cc2c(cn1)[nH]c1ccccc12`, the inhibition in experiment [1] is -4.88%; in experiment [2] (Hit No), 0.163%; in [3] it was 11.4%; in experiment [4], 2.02%; in experiment [5], 41.5%; in experiment [6] it was 5.05%. The inhibition in experiment [7] came out at 8.08%; in experiment [8], 11%; in experiment [9] (Hit No), 22.6%; in experiment [10], 2.22%.
Regarding `NCCc1c[nH]c2ccc(C(N)=O)cc12`, the inhibition in experiment [1] is -6.78%; in experiment [2] (Hit No), -3.21%; in experiment [3], -1.86%; in experiment [4], 0.209%; in experiment [5], 4.88%; in [6], 7.95%. For the same compound, the inhibition in experiment [7] was -4.67%; in experiment [8], 8.45%; in [9] (Hit No), -5.97%; in experiment [10] it was -7.6%.
`N/C(=N\C(=O)c1nc(Cl)c(N)nc1N)NCc1ccccc1`: the inhibition in experiment [1] came out at 4.68%; in experiment [2] (Hit No), 16.3%; in experiment [3], 25.3%; in experiment [4], 7.5%; in [5] it was 36.7%; in experiment [6] it was 9.94%. Also, the inhibition in [7] was 41.7%; in [8], 32.7%; in experiment [9] (Hit No) it was 15.2%; in [10], 15.4%.
In the case of `COc1c(C(=O)/C=C/c2ccccc2)c(O)c(OC)c2occc12`, the inhibition in experiment [1] was -2.63%; in experiment [2] (Hit No), 0.34%; in [3], 7.88%; in [4], 3.49%; in experiment [5] it was 19.8%; in experiment [6], -0.435%. Besides, the inhibition in experiment [7] is 19.3%; in [8], 11%; in [9] (Hit No), -3.15%; in [10], 20.4%.
With `CCCCc1nc2ccc(NC(=O)NC3CCCCC3)cc2n1Cc1ccc(-c2ccccc2C(=O)O)cc1`, the inhibition in [1] is -9.57%; in experiment [2] (Hit No), -1.26%; in experiment [3] it was 24%; in [4] it was -6.72%; in [5], 38.2%; in [6] it was 9.29%. For the same compound, the inhibition was 30.2% in experiment [7], 33.1% in [8], 11% in experiment [9] (Hit No) and 8.52% in [10].
For `O=C(O)Cn1c(C(=O)Nc2nc(-c3ccccc3Cl)cs2)cc2ccccc21`, the inhibition is -4.79% in experiment [1]; 6.47% in [2] (Hit No); 17.4% in [3]; 5.06% in experiment [4]; 40.1% in experiment [5]; -4.5% in [6]. Moreover, the inhibition in experiment [7] is 38.1%; in experiment [8] it was 39.6%; in experiment [9] (Hit No) it was 0.265%; in experiment [10], -9.07%.
`Cn1c(C2(NC(=O)c3ccc4c(C5CCCC5)c(-c5ncc(Br)cn5)n(C)c4c3)CCC2)nc2ccc(/C=C/C(=O)O)cc21`: the inhibition is 13.1% in experiment [1]; 60.3% in [2] (Hit No); 107% in experiment [3]; 25.4% in [4]; 68.7% in experiment [5]; 12.4% in [6]. Also, the inhibition in experiment [7] was 69.3%; in [8], 101%; in experiment [9] (Hit Yes), 40.3%; in [10], 0.685%.

The values above are taken from ChEMBL document CHEMBL5665443, “Enzyme Inhibitor Single Concentration assay results for EUbOPEN Chemogenomics Library” (2024).
